The target of this assay is T1, Apical membrane antigen 1 (Plasmodium falciparum, UniProt Q94661).
T1 sequence (Q94661 whole entry): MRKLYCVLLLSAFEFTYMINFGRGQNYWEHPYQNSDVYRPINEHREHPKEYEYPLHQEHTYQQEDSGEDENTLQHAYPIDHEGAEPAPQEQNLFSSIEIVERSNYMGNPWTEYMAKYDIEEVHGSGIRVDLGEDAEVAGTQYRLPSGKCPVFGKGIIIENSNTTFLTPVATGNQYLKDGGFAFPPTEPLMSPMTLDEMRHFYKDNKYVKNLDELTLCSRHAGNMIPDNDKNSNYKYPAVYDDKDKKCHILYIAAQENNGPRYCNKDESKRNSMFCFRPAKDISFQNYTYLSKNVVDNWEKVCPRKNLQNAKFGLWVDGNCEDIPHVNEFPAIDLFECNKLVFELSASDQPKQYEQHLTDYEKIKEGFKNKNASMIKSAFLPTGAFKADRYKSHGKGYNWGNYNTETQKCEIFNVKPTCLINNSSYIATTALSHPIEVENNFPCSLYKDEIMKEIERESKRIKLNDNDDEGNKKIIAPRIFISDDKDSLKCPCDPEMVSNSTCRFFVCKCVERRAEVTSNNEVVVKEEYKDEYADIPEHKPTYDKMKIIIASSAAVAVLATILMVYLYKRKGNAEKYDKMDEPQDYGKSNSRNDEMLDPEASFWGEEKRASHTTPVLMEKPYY
As to the kind of experiment: Displacement of 5-FAM-Ahx-ALPLFSKFGSRMH from Plasmodium falciparum AMA1 by fluorescence anisotropy assay.

What is called IC50 is the concentration at which inhibition is half-maximal. Low readings indicate greater potency in that assay, high ones weaker potency in that assay.

In turn, `COc1ccc(CN2CC(OCc3ccccc3F)CN(C(=O)CCc3c(C)nc4ncnn4c3C)CC2=O)cc1` (stereo unspecified) showed an IC50 of 24 µM.
